Converted amounts (≈) assume the structure as drawn.
What was measured:
[1] = no reference given; cited from earlier work
[2] = system: HepG2 cell line; assay: MTT assay, cell viability against HepG2; assay type: cell-based; settings: Homo sapiens; for IC50: HepG2, MTT, 48 h; for inhibition at 3.125 µg/mL / inhibition at 6.25 µg/mL / inhibition at 12.5 µg/mL / inhibition at 25 µg/mL / inhibition at 50 µg/mL / inhibition at 100 µg/mL / inhibition at 200 µg/mL: HepG2
Method: The anti-hepatocellular activity of afforded N-arylated 1,2,4-triazole coupled acetamides (7a–f) was evaluated via MTT assay and these structural hybrids were screened against a liver cancer HepG2 cell line.
The cell viability of all of the compounds was further evaluated using various concentrations ([…]) to test the dose response and % inhibition relationship as shown in Table 2.
Human HepG2 liver cancer cell lines were cultured by Dulbecco’s modified Eagle’s medium. It is composed of 100 μg/mL streptomycin, 100 units/mL penicillin, and 10% FBS. A humidified atmosphere was provided for incubation at 37 °C with 5% CO2. The anti-hepatocellular therapeutic potential of triazole-based scaffolds was evaluated by dissolving its different concentrations in 0.05% DMSO.
An MTT assay was applied for evaluation of cell viability against the HepG2 cell line. In short, different concentrations of new triazole-based scaffolds were incubated with HepG2 cell lines for 48 h. After incubation, 5 mg/mL of 10 µL MTT solution was added in each plate and they were further incubated at 37 °C for 4 h. The percentage of cell viability was calculated at 490 nm after the addition of 150 μL DMSO into a microplate reader (Thermo Scientific, Waltham, MA, USA).

[3] = Hemolytic activity, Triton-X-100 as standard; settings: relative to Triton-X-100
Description: Hemolytic activity was investigated by the reported method using Triton-X-100 as a standard. Molecule 7f also presented very low toxicity at 1.19 ± 0.02 relative to reference Triton-X-100. All of the other compounds had moderately good hemolytic activity.
Hemolytic activity was investigated by the reported method using Triton-X-100 as standard.

IC50 [2] [µg/mL] | melting point [°C] | Compound | bioavailability [1] | inhibition at 3.125 µg/mL [2] [%] | inhibition at 6.25 µg/mL [2] [%] | inhibition at 12.5 µg/mL [2] [%] | inhibition at 25 µg/mL [2] [%] | inhibition at 50 µg/mL [2] [%] | inhibition at 100 µg/mL [2] [%] | inhibition at 200 µg/mL [2] [%] | Hemolytic Activity (Mean% ± S.D) [3] [%] | Hemolytic Activity (Mean% ± S.D) ([3]; listed as Triton X100) [%]
5.97 (≈ 12.8 µM) |  | CNC(=O)c1cc(Oc2ccc(NC(=O)Nc3ccc(Cl)c(C(F)(F)F)c3)cc2)ccn1 [Sorafenib, reference compound] | 38–49% |  |  |  |  |  |  |  |  | 
16.8 (≈ 38.4 µM) | 150 to 152 | Cc1cccc(C)c1NC(=O)CSc1nnc(C(C)c2ccc(CC(C)C)cc2)n1C (stereo not shown) [Compound 7f, N-(2,6-Dimethylphenyl)-2-((5-(1-(4-Isobutylphenyl)Ethyl)-4-Methyl-4H-1,2,4-Triazol-3-yl)Thio)Acetamide] |  | 8.4 ± 4.54 | 19.6 ± 4.07 | 34 ± 2.47 | 85.9 ± 0.3 | 86.57 ± 0.56 | 87.7 ± 1.34 | 88.36 ± 0.31 |  | 
39 (≈ 89.3 µM) | 100 to 102 | CCc1ccc(NC(=O)CSc2nnc(C(C)c3ccc(CC(C)C)cc3)n2C)cc1 (stereo not shown) [Compound 7c, N-(4-Ethylphenyl)-2-((5-(1-(4-Isobutylphenyl)Ethyl)-4-Methyl-4H-1,2,4-Triazol-3-yl)Thio)Acetamide] |  | 15.4 ± 2.01 | 17.4 ± 1.32 | 19.1 ± 1.25 | 22.8 ± 0.29 | 73.7 ± 15.5 | 78.8 ± 10.8 | 87.51 ± 0.2 |  | 
 |  | Triton-X-100 [reference compound] |  |  |  |  |  |  |  |  | 100 ± 0.0 | 100
20.7 (≈ 48.9 µM) | 122 to 124 | Cc1ccccc1NC(=O)CSc1nnc(C(C)c2ccc(CC(C)C)cc2)n1C (stereo not shown) [Compound 7a, N-(2-Methylphenyl)-2-((5-(1-(4-isobutylphenyl)ethyl)-4-methyl-4H-1,2,4-triazol-3-yl)thio)Acetamide] |  | 11.6 | 21.4 ± 6.24 | 27.7 ± 6.46 | 64 ± 1.67 | 75.2 ± 5.99 | 88.17 ± 0.26 | 89.4 ± 0.34 |  | 
39.7 (≈ 89.5 µM) | 123 to 125 | CC(C)Cc1ccc(C(C)c2nnc(SCC(=O)Nc3ccccc3Cl)n2C)cc1 (stereo not shown) [Compound 7d, N-(2-Chlorophenyl)-2-((5-(1-(4-Isobutylphenyl)Ethyl)-4-Methyl-4H-1,2,4-Triazol-3-yl)Thio)Acetamide] |  | 14.3 ± 4.27 | 17.3 ± 1.4 | 19.1 ± 17.7 | 19.5 ± 1.44 | 76.7 ± 5.63 | 78.33 ± 0.78 | 87.7 ± 0.18 |  | 
39.1 (≈ 95.7 µM) | 88 to 90 | CC(C)Cc1ccc(C(C)c2nnc(SCC(=O)Nc3ccccc3)n2C)cc1 (stereo not shown) [Compound 7e, N-(Phenyl)-2-((5-(1-(4-Isobutylphenyl)Ethyl)-4-Methyl-4H-1,2,4-Triazol-3-yl)Thio)Acetamide] |  | 18.6 ± 0.5 | 20.5 ± 7.11 | 21 ± 3.13 | 24 ± 6.12 | 74.2 ± 13.2 | 87.3 ± 2.09 | 88 ± 1.44 |  | 
33.6 (≈ 66.9 µM) | 122 to 124 | Cc1cc(Br)ccc1NC(=O)CSc1nnc(C(C)c2ccc(CC(C)C)cc2)n1C (stereo not shown) [Compound 7b, N-(4-Bromo-2-Mthylphenyl)-2-((5-(1-(4-Isobutylphenyl)Ethyl)-4-Methyl-4H-1,2,4-Triazol-3-yl)Thio)Acetamide] |  | 10.3 | 24.8 ± 4.62 | 25.2 ± 4.67 | 31.9 ± 0.3 | 88.6 ± 1.11 | 89.4 ± 0.91 | 89.5 ± 0.06 |  | 

From PMC9964635, “Bio-Oriented Synthesis and Molecular Docking Studies of 1,2,4-Triazole Based Derivatives as Potential Anti-Cancer Agents against HepG2 Cell Line” (Pharmaceuticals, 2023)
